Results: US4417052A, “Phenyl-lower-alkyl piperidines and pyrrolidines” (Sterling Drug Inc., priority 1981, dated 1983)
Structures can show the parent of a compound that is named as a salt. Where two headings read alike, the source gives them in different places.

Legend:
[1] = test system: acetylcholine-induced abdominal constriction; assay: acetylcholine-induced abdominal constriction test (Ach); assay type: in vivo, mice; conditions: for ED50: Mus musculus, read-out: Ach ED50
Excerpt: J. Pharmacol. Chemotherap. 32, 295 (1968); a modification of the anti-bradykinin test, which is also a primary analgesic screening procedure, described by Berkowitz et al., J. Pharmacol. Exp. Therap. 177, 500-508 (1971), Blane et al., J. Pharm. Pharmacol. 19, 367-373 (1967), Botha et al., Eur. J. Pharmacol. 6, 312-321 (1969) and Deffenu et al., J. Pharm. Pharmacol. 18, 135 (1966); the phenyl-p-quinone-induced writhing test, also a primary analgesic screening test, designed to measure the ability of a test agent to prevent phenyl-p-quinone-induced writhing in mice, described by Pearl and Harris, J. Pharmacol. Exptl. Therap. 154, 319-323 (1966); the rat tail flick radiant thermal heat analgesic (agonist) test described by D'Amour and Smith, J. Pharmacol. Exptl. Therap. 72, 74 (1941) as modified by Bass and VanderBrook, J. Am. Pharm. Assoc. Sci. Ed. 41, 569 (1956); and the phenazocine antagonist test, which is designed to measure the ability of a test agent to antagonize the effect of phenazocine in the above-indicated rat tail flick response test, described by Harris and Pierson, J. Pharmacol. Exptl. Therap. 143, 141 (1964).
The ED50 is the calculated Effective Dose in 50% of the test animals. The abbreviations s.c., p.o. and i.p. stand for subcutaneous, peroral and intraperitoneal routes of administration, respectively. The compounds are identified by the Example numbers above where their preparations are described.

[2] = test system: carrageenin-induced foot edema; assay: inhibition of carrageenin-induced foot edema test (C.E.); assay type: in vivo; conditions: oral; for inhibition in vivo at 5 µmol/kg: dose 0.005 millimoles/kg; for inhibition in vivo at 20 µmol/kg: dose 0.02 millimoles/kg; for inhibition in vivo at 4 µmol/kg: dose 0.004 millimoles/kg; for C.E. percent inhibition (Table B): formula V amides
Description: (§1) Anti-inflammatory activity was determined using (1) the inhibition of carrageenin-induced foot edema test essentially described by Winter et al., Proc. Soc. Exp. Biol. and Med. 111, 554 (1962) as modified by Van Arman et al., J. Pharmacol. Exptl. Therap. 150, 328 (1965) and (2) a modification of the inhibition of adjuvant-induced arthritis test described by Pierson, J. Chronic Diseases 16, 863 (1963) and Glenn et al., Am. J. Vet. Res. 26, 1180 (1965).
(§2) The N-{2-,3- and 4-[R1 -(phenyl)-C(=X)]-phenyl-lower-alkyl}amines of formulas I, Ia and Ib of the invention have been tested in the carrageenin edema (CE) and adjuvant arthritis (AA) tests and found to have anti-inflammatory activity. For comparative purposes, data obtained in the carrageenin edema test on the reference compound (designated "Ref."), 4[(3-benzoylphenyl)methyl]morpholine, disclosed in French Patent 1,549,342, are also given. All data were obtained on oral administration.

[3] = test system: adjuvant-induced arthritis; assay: inhibition of adjuvant-induced arthritis test (A.A.); assay type: in vivo; conditions: oral; for inhibition in vivo at 5 µmol/kg: dose 0.005 millimoles/kg; for inhibition in vivo at 20 µmol/kg: dose 0.02 millimoles/kg; for A.A. percent inhibition (Table B): formula V amides
Description: as §1, §2

[4] = read-out: C.E. percent inhibition
[5] = dose 0.08 millimoles/kg, read-out: C.E. percent inhibition
[6] = dose 0.324 millimoles/kg, read-out: C.E. percent inhibition
[7] = read-out: A.A. percent inhibition
[8] = dose 0.08 millimoles/kg, read-out: A.A. percent inhibition
[9] = dose 0.324 millimoles/kg, read-out: A.A. percent inhibition
[10] = dose 0.324 millimoles/kg, (a) data obtained after 17 days on test and 9 medications
[11] = dose 0.16 millimoles/kg, read-out: A.A. percent inhibition

CC(CN1CCCCC1CC1CCCCC1)c1cccc(C(O)c2ccccc2)c1 (stereo not drawn) [Example 1, 2-cyclohexylmethyl-1-{2-[3-(α-hydroxybenzyl)phenyl]propyl}piperidine]
ED50 ([1]; po): 71 mg/kg | Ach percent inhibition of writhing ([1]; dose 25, s.c.): 7% | Ach percent inhibition of writhing ([1]; dose 75, s.c.): 33% | inhibition in vivo at 5 µmol/kg [2, 4]: 13% | inhibition in vivo at 20 µmol/kg [2, 4]: 23% | inhibition in vivo at 80 µmol/kg [2, 5]: 60% | inhibition in vivo at 324 µmol/kg [2, 6]: 73% | inhibition in vivo at 5 µmol/kg [3, 7]: 56% | inhibition in vivo at 20 µmol/kg [3, 7]: 73% | inhibition in vivo at 80 µmol/kg [3, 8]: 91%

CC(CN1CCSCC1)c1ccc(C(=O)c2ccccc2)cc1 (stereo not shown) [Example 24D, 4-[2-(4-benzoylphenyl)propy]thiomorpholine hydrochloride]
ED50 ([1]; po): 50 mg/kg | inhibition in vivo at 80 µmol/kg [2, 5]: 61% | inhibition in vivo at 324 µmol/kg [2, 6]: 70% | inhibition in vivo at 80 µmol/kg [3, 8]: 28%

CC(C)(CN1CCC2(CC1)OCCO2)c1cccc(C(=O)c2ccccc2)c1.Cl [Example 24J, 8-[2,2-dimethyl-2-(3-benzoylphenyl)ethyl]-1,4-dioxa-8-azaspiro[4,5]decane hydrochloride]
Ach percent inhibition of writhing ([1]; dose 25, s.c.): 33% | Ach percent inhibition of writhing ([1]; dose 50, p.o.): 27% | Ach percent inhibition of writhing ([1]; dose 150, p.o.): 53% | inhibition in vivo at 80 µmol/kg [2, 5]: 6% | inhibition in vivo at 324 µmol/kg [2, 6]: 8% | inhibition in vivo at 324 µmol/kg [3, 9]: 36%

CC(CN1CCCCC1C1CCCCC1)c1cccc(C(=O)c2ccccc2)c1 (stereo not shown) [Example 7E, 2-Cyclohexyl-1-[2-(3-benzoylphenyl)propyl]piperidine]
Ach percent inhibition of writhing ([1]; dose 25, s.c.): 46% | Ach percent inhibition of writhing ([1]; dose 75, s.c.): 93% | inhibition in vivo at 80 µmol/kg [2, 5]: 33% | inhibition in vivo at 324 µmol/kg [2, 6]: 58% | inhibition in vivo at 80 µmol/kg [3, 8]: 92%

CC(CN1CCCCC1CCC1CCCCC1)c1cccc(C(=O)c2ccccc2)c1 (stereo not shown) [Example 7F, 2-(2-Cyclohexylethyl)-1-[2-(3-benzoylphenyl)propyl]piperidine]
Ach percent inhibition of writhing ([1]; dose 25, s.c.): 7% | Ach percent inhibition of writhing ([1]; dose 75, s.c.): 33% | inhibition in vivo at 80 µmol/kg [2, 5]: 33% | inhibition in vivo at 324 µmol/kg [2, 6]: 51% | inhibition in vivo at 80 µmol/kg [3, 8]: 91% | toxicity ([3]; dose 0.16 millimoles/kg): Toxic

CC(CN1CCNCC1)c1cccc(C(=O)c2ccccc2)c1.Cl.Cl (stereo not shown) [Example 24G, 1-[2-(3-benzoylphenyl)propyl]piperazine dihydrochloride]
ED50 ([1]; po): 30 mg/kg | ED50 ([1]; sc): 5.6 mg/kg | inhibition in vivo at 80 µmol/kg [2, 5]: 32% | inhibition in vivo at 324 µmol/kg [2, 6]: 52%

CC(CN1C(C)CCCC1C)c1cccc(C(=O)c2ccccc2)c1 (stereo not shown) [Example 13, 2,6-dimethyl-1-[2-(3-benzoylphenyl)propyl]piperidine]
inhibition in vivo at 4 µmol/kg [2, 4]: 0% | inhibition in vivo at 15 µmol/kg ([2]; dose 0.015 millimoles/kg, read-out: C.E. percent inhibition): 15% | inhibition in vivo at 60 µmol/kg ([2]; dose 0.06 millimoles/kg, read-out: C.E. percent inhibition): 37% | inhibition in vivo at 80 µmol/kg [2, 5]: 54% | inhibition in vivo at 324 µmol/kg [2, 6]: 56% | inhibition in vivo at 4 µmol/kg ([3]; dose 0.004 millimoles/kg, read-out: A.A. percent inhibition): 37% | inhibition in vivo at 15 µmol/kg ([3]; dose 0.015 millimoles/kg, read-out: A.A. percent inhibition): 52% | inhibition in vivo at 60 µmol/kg ([3]; dose 0.06 millimoles/kg, read-out: A.A. percent inhibition): 78%

CC(CN1CCC2(CC1)OCCS2)c1ccc(C(=O)c2ccccc2)cc1.Cl (stereo not shown) [Example 24F, 8-[2-(4-benzoylphenyl)propyl]-1-oxa-4-thia-8-azaspiro[4,5]decane hydrochloride]
ED50 ([1]; po): 18 mg/kg

CC(C(=O)N1CCN(C2CCCCC2)CC1)c1cccc(C(=O)c2ccccc2)c1.Cl (stereo not drawn) [Example 1E, 4-Cyclohexyl-1-[α-(3-benzoylphenyl)propionyl]piperazine hydrochloride]
convulsions and salivation ([2]; C.E. test, dose 0.324 millimoles/kg): Convulsions and salivation produced in 2 of 8 test animals | C.E. percent inhibition (Table B) ([2]; dose 0.08 millimoles/kg): 10% | C.E. percent inhibition (Table B) ([2]; dose 0.324 millimoles/kg): 61% | A.A. percent inhibition (Table B) ([3]; dose 0.08 millimoles/kg): 63%

CC(C(=O)N1CCN(c2ccccc2)CC1)c1cccc(C(=O)c2ccccc2)c1 (stereo not drawn) [Example 1F, 4-Phenyl-1-[α-(3-benzoylphenyl)propionyl]piperazine]
C.E. percent inhibition (Table B) ([2]; dose 0.08 millimoles/kg): 2% | C.E. percent inhibition (Table B) ([2]; dose 0.324 millimoles/kg): 18% | A.A. percent inhibition (Table B) ([3]; dose 0.324 millimoles/kg): 58%

CC(CN1CCCCC1CC1CCCCC1)c1cccc(C(=O)c2ccc(F)cc2)c1 (stereo not shown) [Example 7B, 2-Cyclohexylmethyl-1-{2-[3-(4-fluorobenzoyl)phenyl]propyl}piperidine]
inhibition in vivo at 4 µmol/kg [2, 4]: 3% | inhibition in vivo at 20 µmol/kg [2, 4]: 38% | inhibition in vivo at 5 µmol/kg [3, 7]: 61% | inhibition in vivo at 20 µmol/kg [3, 7]: 55% | inhibition in vivo at 80 µmol/kg [3, 8]: 85%

CC(CN1CCC2(CC1)SCCS2)c1ccc(C(=O)c2ccccc2)cc1.Cl (stereo not shown) [Example 24E, 8-[2-(4-benzoylphenyl)propyl]-1,4-dithia-8-azaspiro[4,5]decane hydrochloride]
ED50 ([1]; po): 39 mg/kg

CC(C)(CN1CCOCC1)c1cccc(C(=O)c2ccccc2)c1.Cl [Example 24H, 4-[2,2-dimethyl-2-(3-benzoylphenyl)ethyl]morpholine hydrochloride]
Ach percent inhibition of writhing ([1]; dose 25, s.c.): 7% | Ach percent inhibition of writhing ([1]; dose 50, s.c.): 13% | Ach percent inhibition of writhing ([1]; dose 150, s.c.): 73% | inhibition in vivo at 80 µmol/kg [2, 5]: 0% | inhibition in vivo at 324 µmol/kg [2, 6]: 22% | inhibition in vivo at 324 µmol/kg [3, 9]: 8%

CC(CN1CCCCC1CC1CCCCC1)c1cccc(C(N)c2ccccc2)c1 (stereo not drawn) [Example 16, 2-cyclohexylmethyl-1-{2-[3-(α-aminobenzyl)phenyl]propyl}piperidine dihydrochloride]
inhibition in vivo at 4 µmol/kg [2, 4]: 16% | inhibition in vivo at 20 µmol/kg [2, 4]: 31% | inhibition in vivo at 5 µmol/kg [3, 7]: 80% | inhibition in vivo at 20 µmol/kg [3, 7]: 89% | inhibition in vivo at 80 µmol/kg [3, 8]: 108%

CC(C(=O)N1CCCCC1CC1CCCCC1)c1cccc(C(=O)c2ccccc2)c1 (stereo not drawn) [Example 1 (Table B), 2-cyclohexylmethyl-1-[α-(3-benzoylphenyl)propionyl]piperidine]
C.E. percent inhibition (Table B) ([2]; dose 0.08 millimoles/kg): 21% | C.E. percent inhibition (Table B, footnote a) [2, 10]: 36% | A.A. percent inhibition (Table B, footnote a) [3, 10]: 67%

CC(C)(CN1CCOCC1)c1ccc(C(=O)c2ccccc2)cc1.Cl [Example 24K, 4-[2,2-dimethyl-2-(4-benzoylphenyl)ethyl]morpholine hydrochloride]
ED50 ([1]; po): 38 mg/kg | inhibition in vivo at 80 µmol/kg [2, 5]: 19% | inhibition in vivo at 324 µmol/kg [2, 6]: 60% | inhibition in vivo at 324 µmol/kg [3, 9]: 7%

CC(CN1CCC2(CC1)OCCO2)c1cccc(C(=O)c2ccccc2)c1 (stereo not shown) [7G (base), 8-[2-(3-Benzoylphenyl)propyl]-1,4-dioxa-8-azaspiro[4,5]decane]
inhibition in vivo at 4 µmol/kg [2, 4]: 33% | inhibition in vivo at 20 µmol/kg [2, 4]: 42% | inhibition in vivo at 80 µmol/kg [3, 8]: 76%

CC1CCCC(C)N1CCc1ccc(O)c(C(=O)c2ccccc2)c1 (stereo not shown) [Example 19, 2,6-dimethyl-1-[2-(3-benzoyl-4-hydroxyphenyl)ethyl]piperidine hydrochloride]
inhibition in vivo at 20 µmol/kg [2, 4]: 5% | inhibition in vivo at 80 µmol/kg [2, 5]: 0% | inhibition in vivo at 324 µmol/kg [2, 6]: 23% | inhibition in vivo at 160 µmol/kg [3, 11]: 1%

CC(CN1CCCC1CC1CCCCC1)c1cccc(C(O)c2ccccc2)c1 (stereo not drawn) [Example 3B, 2-Cyclohexylmethyl-1-{2-[3-(α-hydroxybenzyl)phenyl]propyl}pyrrolidine]
inhibition in vivo at 80 µmol/kg [2, 5]: 19% | inhibition in vivo at 324 µmol/kg [2, 6]: 63% | inhibition in vivo at 160 µmol/kg [3, 11]: 91%

COc1ccc(C(O)c2cccc(C(C)CN3CCCCC3CC3CCCCC3)c2)cc1 (stereo not drawn) [Example 3, 2-cyclohexylmethyl-1-{2-[3-(α-hydroxy-4-methoxybenzyl)phenyl]propyl}piperidine]
inhibition in vivo at 5 µmol/kg [2, 4]: 0% | inhibition in vivo at 20 µmol/kg [2, 4]: 3% | inhibition in vivo at 80 µmol/kg [2, 5]: 35% | inhibition in vivo at 5 µmol/kg [3, 7]: 0% | inhibition in vivo at 20 µmol/kg [3, 7]: 2% | inhibition in vivo at 80 µmol/kg [3, 8]: 30%
